This note sets out measurements from patent EP0515141A1, “Novel process for the preparation of 8A-aza-8A-homoerythromycin cyclic lactams” (MERCK & CO. INC., priority 1991, dated 1992).

What all share (assay): liquid turbidimetric microtiter MIC assay
Holding throughout (format): cell-based

Assay [1] has as its system Staphylococcus haemolyticus MB 5412. Conditions: MB5412, brain heart infusion broth. The text has this: (§1) The antibacterial activities of compound (III) against a panel of aerobic Gram positive and negative bacteria is shown in the following Table. The assay employs a liquid turbidimetric microtiter method for the determination of the minimum inhibitory concentration (MIC) in brain heart infusion broth. […] The MIC is generally not an absolute value but rather a concentration ranged that falls within a two-fold dilution limit. Generally twelve two-fold dilutions of the test compound are employed with the initial concentration set at 128 mcg/ml.

For assay [2], the system named is Staphylococcus epidermidis MB 5414. Particulars: MB5414, brain heart infusion broth.
Excerpt: as §1

The next assay deals with Escherichia coli MB 2884. Conditions: MB2884, brain heart infusion broth.
Excerpt: as §1

Assay [3] concerns Pseudomonas stutzeri MB 1231. Particulars: Stutzerimonas stutzeri, MB1231, brain heart infusion broth.
Excerpt: as §1

For assay [4], the system named is Streptococcus pneumoniae CL 2883. Particulars: CL2883, brain heart infusion broth.
Excerpt: as §1

Assay [5] has as its system Steptococcus viridans CL 2943. Conditions: brain heart infusion broth.
Excerpt: as §1

Assay [6] concerns Staphylococcus aureus MB 2865. Particulars: MB2865, brain heart infusion broth.
Excerpt: as §1

Another assay deals with Escherichia coli MB 4926. Conditions: MB4926, brain heart infusion broth.
Excerpt: as §1

The subject of assay [7] is Yersinia enterocoltica CL 1598. Conditions: CL1598, brain heart infusion broth.
Excerpt: as §1

In assay [8] the test system is Streptococcus pyogenes MB 5406. Particulars: MB5406, brain heart infusion broth.
Excerpt: as §1

Assay [9] has as its system Enterococcus faecalis MB 5407. Particulars: MB5407, brain heart infusion broth.
Excerpt: as §1

Assay [10] concerns Streptococcus pyogenes MB 2874. Conditions: MB2874, brain heart infusion broth.
Excerpt: as §1

Assay [11] concerns Enterococcus faecium MB 5416. Conditions: MB5416, brain heart infusion broth.
Excerpt: as §1

Assay [12] has as its system Klebsiella pneumoniae MB 4005. Conditions: MB4005, brain heart infusion broth.
Excerpt: as §1

Assay [13] relates to Streptococcus agalactiae CL 1343. Particulars: CL1343, brain heart infusion broth.
Excerpt: as §1

Values after ≈ are worked out from the molar mass of the structure shown. A value given as a limit tells only on which side of the number the result lay.

In the case of `CC[C@H]1OC(=O)[C@H](C)[C@@H](O[C@H]2C[C@@](C)(OC)[C@@H](O)[C@H](C)O2)[C@H](C)[C@@H](O[C@@H]2O[C@H](C)C[C@H](N(C)C)[C@H]2O)[C@](C)(O)C[C@@H](C)NC(=O)[C@H](C)[C@@H](O)[C@]1(C)O` [(III), 8a-aza-8a-homoerythromycin A], the MIC in assay [1] is 2 µg/mL (≈ 2.67 µM); in assay [2], 2 µg/mL (≈ 2.67 µM); in the assay on Escherichia coli MB 2884, 32 µg/mL (≈ 42.7 µM); in [3], 0.12 µg/mL (≈ 0.16 µM); in assay [4], no more than 0.06 µg/mL; in [5], 4 µg/mL (≈ 5.34 µM). The MIC in assay [6] is 1 µg/mL (≈ 1.34 µM); in the assay on Escherichia coli MB 4926 it was 4 µg/mL (≈ 5.34 µM); in [7], 64 µg/mL (≈ 85.5 µM); in [8] it was 128 µg/mL (≈ 171 µM); in [9], 16 µg/mL (≈ 21.4 µM); in [10], no more than 0.06 µg/mL. In addition, the MIC in assay [11] is no more than 0.06 µg/mL; in assay [12] it was 64 µg/mL (≈ 85.5 µM); in assay [13], 0.25 µg/mL (≈ 0.334 µM).

One may read the MIC as the smallest concentration in the dilution series that meets the test's criterion for growth inhibition. Low readings indicate a more susceptible organism, high ones a less susceptible organism.
